Reference: PubChem BioAssay (NCI)
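Each compound was tested at five concentrations against cells in 96-well plates for 48 hours. The concentration for full growth arrest is given as TGI.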

Tests used:
Test in all cases: NCI tumour cell line growth inhibition, 48 h
[1] = test system: HCT-15 colon
[2] = test system: HT29 colon
[3] = test system: UACC-257 melanoma
[4] = test system: NCI-H460 lung
[5] = test system: 786-0 renal
[6] = test system: HL-60(TB) leukemia
[7] = test system: NCI/ADR-RES ovarian
[8] = test system: PC-3 prostate
[9] = test system: KM12 colon
[10] = test system: RXF 393 renal
[11] = test system: LOX IMVI melanoma
[12] = test system: CCRF-CEM leukemia
[13] = test system: T-47D breast
[14] = test system: OVCAR-8 ovarian
[15] = test system: MDA-MB-435
[16] = test system: MCF7 breast
[17] = test system: HCT-116 colon
[18] = test system: IGROV1 ovarian
[19] = test system: UACC-62 melanoma
[20] = test system: SK-MEL-28 melanoma
[21] = test system: ACHN renal
[22] = test system: NCI-H23 lung
[23] = test system: SK-OV-3 ovarian
[24] = test system: CAKI-1 renal
[25] = test system: SN12C renal
[26] = test system: SF-539 CNS
[27] = test system: SR leukemia
[28] = test system: MALME-3M melanoma
[29] = test system: HOP-62 NSCLC
[30] = test system: HCC-2998 colon
[31] = test system: U251 CNS
[32] = test system: A549 NSCLC
[33] = test system: HS 578T breast
[34] = test system: NCI-H522 lung
[35] = test system: UO-31 renal
[36] = test system: OVCAR-3 ovarian
[37] = test system: M14 melanoma
[38] = test system: MDA-MB-231 breast
[39] = test system: SF-295 CNS
[40] = test system: SF-268 CNS
[41] = test system: K-562 leukemia
[42] = test system: NCI-H226 lung
[43] = test system: SNB-75 CNS
[44] = test system: EKVX NSCLC
[45] = test system: RPMI-8226 leukemia
[46] = test system: OVCAR-4 ovarian
[47] = test system: COLO 205 colon
[48] = test system: MDA-N
[49] = test system: SNB-19 CNS
[50] = test system: OVCAR-5 ovarian
[51] = test system: SK-MEL-2 melanoma
[52] = test system: SK-MEL-5 melanoma
[53] = test system: DU-145 prostate
[54] = test system: SW-620 colon
[55] = test system: MOLT-4 leukemia
[56] = test system: TK-10 renal
[57] = test system: HOP-92 NSCLC
[58] = test system: A498 renal

With `C=CCNC(=S)/N=C\C(C(=O)OCC)=C(/O)C(=O)OCC` the TGI [1] was greater than 100 µM, the TGI [2] was greater than 100 µM and the TGI [3] was greater than 100 µM. The TGI [4] was greater than 100 µM, the TGI [5] was greater than 100 µM and the TGI [6] was greater than 100 µM. For the same compound, the TGI [7] was greater than 100 µM, the TGI [8] was greater than 100 µM and the TGI [9] was greater than 100 µM. For the same compound, the TGI [10] was greater than 100 µM, the TGI [11] was greater than 100 µM and the TGI [12] was greater than 100 µM. It also gave a TGI [13] greater than 100 µM, a TGI [14] greater than 100 µM and a TGI [15] greater than 100 µM. It also gave a TGI [16] greater than 100 µM, a TGI [17] greater than 100 µM and a TGI [18] greater than 100 µM. It also gave a TGI [19] greater than 100 µM, a TGI [20] greater than 100 µM and a TGI [21] greater than 100 µM. For the same compound, the TGI [22] was greater than 100 µM, the TGI [23] was greater than 100 µM and the TGI [24] was greater than 100 µM. For the same compound, the TGI [25] was greater than 100 µM, the TGI [26] was greater than 100 µM and the TGI [27] was greater than 100 µM. The TGI [28] was greater than 100 µM, the TGI [29] was greater than 100 µM and the TGI [30] was greater than 100 µM. For the same compound, the TGI [31] was greater than 100 µM, the TGI [32] was greater than 100 µM and the TGI [33] was greater than 100 µM. For the same compound, the TGI [34] was greater than 100 µM, the TGI [35] was greater than 100 µM and the TGI [36] was greater than 100 µM. The TGI [37] was greater than 100 µM, the TGI [38] was greater than 100 µM and the TGI [39] was greater than 100 µM. For the same compound, the TGI [40] was greater than 100 µM, the TGI [41] was greater than 100 µM and the TGI [42] was greater than 100 µM. It also gave a TGI [43] greater than 100 µM, a TGI [44] greater than 100 µM and a TGI [45] greater than 100 µM. The TGI [46] was greater than 100 µM, the TGI [47] was greater than 100 µM and the TGI [48] was greater than 100 µM. It also gave a TGI [49] greater than 100 µM, a TGI [50] greater than 100 µM and a TGI [51] greater than 100 µM. It also gave a TGI [52] greater than 100 µM, a TGI [53] greater than 100 µM and a TGI [54] greater than 100 µM. The TGI [55] was greater than 100 µM.
For `Cc1ccc(C(=O)CC(O)(C(F)(F)F)C(F)(F)F)cc1[N+](=O)[O-]`, the TGI [1] was 13.6 µM, the TGI [2] was 4.12 µM and the TGI [3] was 9.39 µM. For the same compound, the TGI [4] was 25.1 µM, the TGI [5] was 25.9 µM and the TGI [6] was 4.41 µM. For the same compound, the TGI [7] was 44.2 µM, the TGI [8] was 27.2 µM and the TGI [56] was 33.3 µM. For the same compound, the TGI [9] was 6.31 µM, the TGI [10] was 27.1 µM and the TGI [11] was 5.22 µM. It also gave a TGI [13] of 38.9 µM, a TGI [14] of 25.9 µM and a TGI [15] of 22.5 µM. The TGI [16] was 11 µM, the TGI [17] was 12.1 µM and the TGI [18] was 11.2 µM. It also gave a TGI [19] of 21.9 µM, a TGI [20] of 23.4 µM and a TGI [21] of 28.9 µM. The TGI [22] was 23.7 µM, the TGI [23] was 32.2 µM and the TGI [24] was 4.58 µM. For the same compound, the TGI [25] was 25 µM, the TGI [26] was 31.7 µM and the TGI [27] was 14.3 µM. For the same compound, the TGI [28] was 31.8 µM, the TGI [29] was 29.2 µM and the TGI [30] was 12.9 µM. For the same compound, the TGI [31] was 31.2 µM, the TGI [32] was 33 µM and the TGI [33] was 42.6 µM. The TGI [34] was 1.19 µM, the TGI [35] was 10.6 µM and the TGI [36] was 6.44 µM. For the same compound, the TGI [37] was 17.9 µM, the TGI [38] was 21.5 µM and the TGI [39] was 19.7 µM. It also gave a TGI [40] of 31.4 µM, a TGI [41] greater than 28.2 µM and a TGI [42] of 38.7 µM. The TGI [43] was 33.2 µM, the TGI [44] was 31.7 µM and the TGI [45] was 69.4 µM. It also gave a TGI [46] of 30.7 µM, a TGI [47] of 36.5 µM and a TGI [48] of 28.2 µM. The TGI [49] was 22.6 µM, the TGI [50] was 33.4 µM and the TGI [57] was 22.3 µM. The TGI [51] was 34 µM, the TGI [52] was 30.8 µM and the TGI [53] was 13.7 µM. For the same compound, the TGI [58] was 35.8 µM, the TGI [54] was 42.8 µM and the TGI [55] was 68.5 µM.
